# Results taken from patent US20190071670A1, “Methods Of Treatment For Alpha-1 Antitrypsin Deficiency” (Arrowhead Pharmaceuticals, Inc., priority 2016, published 2019).
# System: hAAT
# Experiment: Serum hAAT protein levels in PiZ mice (ELISA)
# Type: in vivo, human (expressed in PiZ mice)
# Conditions: for Serum hAAT levels reduced: 6 month old female PiZ mice, single IV 8 mg/kg + 8 mg/kg MLP delivery polymer; for Serum hAAT normalized to Day 1 and control / Normalized serum hAAT levels: PiZ mice; for Normalized serum hAAT levels: normalized to day 1 and saline control
# Experimental: Human AAT protein levels in serum were monitored for 29 days. At the indicated times, blood samples were collected and assayed for hAAT by ELISA. Day 1 samples were collected prior to trigger administration. For mRNA analysis, 3-4 mice were euthanized at each of days 3, 8, 15, 22, and 29. For euthanized mice, cardiac stick were performed for serum isolation for AAT ELISA (200 μl serum). Half of the left lateral liver lobe was collected and snap-freeze in liquid nitrogen for RNA isolation. The remainder of the left lobes were embedded into paraffin blocks for PAS-D staining with hematoxylin as counter-stain. Serum hAAT levels in mice given AAT Duplex Pair SEQ ID NO: 5/6 were 95% reduced on day 8 and remained reduced to day 29, at which time they were 79% reduced. Mice given AAT Duplex Pair SEQ ID NO: 5/6 were euthanized at either day 3, 8, 15, 22 or 29. Mice given saline or Luciferase siRNA control (SEQ ID 7/8) were euthanized on day 29. Levels of hAAT mRNA in the livers were measured by RT-qPCR. The hAAT mRNA in mice given AAT Duplex Pair SEQ ID NO: 5/6 was reduced by 97% on day 3 and remained reduced on day 29, at which time levels were 56% reduced. The size of the globules and the area of the liver covered by globules was digitally quantitated from liver specimens stained with PAS-D. Duplex Pair SEQ ID NO: 5/6 treated mice had 70% smaller globules at day 15 and 62% smaller globules at day 29. The area of the liver covered with globules was 83% reduced on day 15 and 72% reduced on day 29 (FIG. 5).
substance,measurement,setting,value
"Duplex Pair SEQ ID NO: 5/6: double-stranded AAT RNAi agent: modified antisense strand SEQ ID NO: 5 annealed to Chol-TEG sense strand SEQ ID NO: 6 (antisense TGGAACUUGGUGAUGAUAUTT; sense UAUAUAUCAUCACCAAGUUCCAT; Chol-TEG on sense strand; chemical modifications; antisense strand of dsRNA; modified_base 7 /mod_base = “2′-3′ seco corresponding nucleotide”; modified_base 2,4,6,8,10,12,14,16,18 /mod_base = “2′-deoxy-2′-fluoro corresponding nucleoside”; modified_base 3,5,9,11,13,15,17,19 /mod_base = “2′-O-methyl corresponding nucleoside”; modified_base 21 /mod_base = “5′-phosphorothioate corresponding nucleotide”; sense strand of dsRNA; modified_base 2 /mod_base = “2′-hydroxy corresponding nucleoside”; modified_base 4,6,8,10,12,14,16,18,20,22 /mod_base = “2′-deoxy-2′-fluoro corresponding nucleoside”; …)",Serum hAAT levels reduced,day 8,95%
same,Serum hAAT levels reduced,day 29,79%
same,Serum hAAT normalized to Day 1 and control,"single IV 0.5 mg/kg + 4 mg/kg MLP delivery polymer, Day 1",1.00
same,Serum hAAT normalized to Day 1 and control,"single IV 0.5 mg/kg + 4 mg/kg MLP delivery polymer, Day 3",0.27 ± 0.02
same,Serum hAAT normalized to Day 1 and control,"single IV 0.5 mg/kg + 4 mg/kg MLP delivery polymer, Day 8",0.29 ± 0.09
same,Serum hAAT normalized to Day 1 and control,"single IV 0.5 mg/kg + 4 mg/kg MLP delivery polymer, Day 15",0.43 ± 0.01
same,Serum hAAT normalized to Day 1 and control,"single IV 0.5 mg/kg + 4 mg/kg MLP delivery polymer, Day 22",0.73 ± 0.03
same,Serum hAAT normalized to Day 1 and control,"single IV 0.5 mg/kg + 4 mg/kg MLP delivery polymer, Day 29",0.66 ± 0.05
same,Serum hAAT normalized to Day 1 and control,"single IV 0.5 mg/kg + 4 mg/kg MLP delivery polymer, Day 35",0.97 ± 0.02
same,Serum hAAT normalized to Day 1 and control,"single IV 0.5 mg/kg + 4 mg/kg MLP delivery polymer, Day −3",0.64 ± 0.10
same,Serum hAAT normalized to Day 1 and control,"single IV 0.5 mg/kg + 8 mg/kg MLP delivery polymer, Day 1",1.00
same,Serum hAAT normalized to Day 1 and control,"single IV 0.5 mg/kg + 8 mg/kg MLP delivery polymer, Day 3",0.20 ± 0.02
same,Serum hAAT normalized to Day 1 and control,"single IV 0.5 mg/kg + 8 mg/kg MLP delivery polymer, Day 8",0.10 ± 0.03
same,Serum hAAT normalized to Day 1 and control,"single IV 0.5 mg/kg + 8 mg/kg MLP delivery polymer, Day 15",0.19 ± 0.05
same,Serum hAAT normalized to Day 1 and control,"single IV 0.5 mg/kg + 8 mg/kg MLP delivery polymer, Day 22",0.55 ± 0.05
same,Serum hAAT normalized to Day 1 and control,"single IV 0.5 mg/kg + 8 mg/kg MLP delivery polymer, Day 29",0.49 ± 0.09
same,Serum hAAT normalized to Day 1 and control,"single IV 0.5 mg/kg + 8 mg/kg MLP delivery polymer, Day 35",0.71 ± 0.09
same,Serum hAAT normalized to Day 1 and control,"single IV 0.5 mg/kg + 8 mg/kg MLP delivery polymer, Day −3",0.71 ± 0.03
same,Normalized serum hAAT levels,"single IV 2 mg/kg + 2 mg/kg MLP, day 1",1.00
same,Normalized serum hAAT levels,"single IV 2 mg/kg + 2 mg/kg MLP, day 8",0.32 ± 0.24
same,Normalized serum hAAT levels,"single IV 2 mg/kg + 2 mg/kg MLP, day 15",0.88 ± 0.13
same,Normalized serum hAAT levels,"single IV 2 mg/kg + 2 mg/kg MLP, day 20",0.89 ± 0.18
same,Normalized serum hAAT levels,"single IV 2 mg/kg + 2 mg/kg MLP, day 29",1.01 ± 0.23
same,Normalized serum hAAT levels,"single IV 2 mg/kg + 2 mg/kg MLP, day 36",1.02 ± 0.15
same,Normalized serum hAAT levels,"single IV 2 mg/kg + 2 mg/kg MLP, day −7",0.91 ± 0.11
same,Serum hAAT normalized to Day 1 and control,"single IV 2 mg/kg + 4 mg/kg MLP delivery polymer, Day 1",1.00
same,Serum hAAT normalized to Day 1 and control,"single IV 2 mg/kg + 4 mg/kg MLP delivery polymer, Day 3",0.25 ± 0.03
same,Serum hAAT normalized to Day 1 and control,"single IV 2 mg/kg + 4 mg/kg MLP delivery polymer, Day 8",0.21 ± 0.07
same,Serum hAAT normalized to Day 1 and control,"single IV 2 mg/kg + 4 mg/kg MLP delivery polymer, Day 15",0.32 ± 0.06
same,Serum hAAT normalized to Day 1 and control,"single IV 2 mg/kg + 4 mg/kg MLP delivery polymer, Day 22",0.71 ± 0.14
same,Serum hAAT normalized to Day 1 and control,"single IV 2 mg/kg + 4 mg/kg MLP delivery polymer, Day 29",0.66 ± 0.06
same,Serum hAAT normalized to Day 1 and control,"single IV 2 mg/kg + 4 mg/kg MLP delivery polymer, Day 35",0.70 ± 0.09
same,Serum hAAT normalized to Day 1 and control,"single IV 2 mg/kg + 4 mg/kg MLP delivery polymer, Day −3",0.67 ± 0.02
same,Normalized serum hAAT levels,"single IV 2 mg/kg + 4 mg/kg MLP, day 1",1.00
same,Normalized serum hAAT levels,"single IV 2 mg/kg + 4 mg/kg MLP, day 8",0.07 ± 0.04
same,Normalized serum hAAT levels,"single IV 2 mg/kg + 4 mg/kg MLP, day 15",0.50 ± 0.19
same,Normalized serum hAAT levels,"single IV 2 mg/kg + 4 mg/kg MLP, day 20",0.67 ± 0.12
same,Normalized serum hAAT levels,"single IV 2 mg/kg + 4 mg/kg MLP, day 29",0.89 ± 0.06
same,Normalized serum hAAT levels,"single IV 2 mg/kg + 4 mg/kg MLP, day 36",0.94 ± 0.17
same,Normalized serum hAAT levels,"single IV 2 mg/kg + 4 mg/kg MLP, day −7",0.90 ± 0.15
same,Serum hAAT normalized to Day 1 and control,"single IV 2 mg/kg + 8 mg/kg MLP delivery polymer, Day 1",1.00
same,Serum hAAT normalized to Day 1 and control,"single IV 2 mg/kg + 8 mg/kg MLP delivery polymer, Day 3",0.17 ± 0.03
same,Serum hAAT normalized to Day 1 and control,"single IV 2 mg/kg + 8 mg/kg MLP delivery polymer, Day 8",0.05 ± 0.00
same,Serum hAAT normalized to Day 1 and control,"single IV 2 mg/kg + 8 mg/kg MLP delivery polymer, Day 15",0.10 ± 0.03
same,Serum hAAT normalized to Day 1 and control,"single IV 2 mg/kg + 8 mg/kg MLP delivery polymer, Day 22",0.22 ± 0.03
same,Serum hAAT normalized to Day 1 and control,"single IV 2 mg/kg + 8 mg/kg MLP delivery polymer, Day 29",0.40 ± 0.06
same,Serum hAAT normalized to Day 1 and control,"single IV 2 mg/kg + 8 mg/kg MLP delivery polymer, Day 35",0.63 ± 0.04
same,Serum hAAT normalized to Day 1 and control,"single IV 2 mg/kg + 8 mg/kg MLP delivery polymer, Day −3",0.53 ± 0.08
same,Normalized serum hAAT levels,"single IV 4 mg/kg + 2 mg/kg MLP, day 1",1.00
same,Normalized serum hAAT levels,"single IV 4 mg/kg + 2 mg/kg MLP, day 8",0.08 ± 0.03
same,Normalized serum hAAT levels,"single IV 4 mg/kg + 2 mg/kg MLP, day 15",0.68 ± 0.13
same,Normalized serum hAAT levels,"single IV 4 mg/kg + 2 mg/kg MLP, day 20",0.90 ± 0.15
same,Normalized serum hAAT levels,"single IV 4 mg/kg + 2 mg/kg MLP, day 29",1.07 ± 0.07
same,Normalized serum hAAT levels,"single IV 4 mg/kg + 2 mg/kg MLP, day 36",1.01 ± 0.08
same,Normalized serum hAAT levels,"single IV 4 mg/kg + 2 mg/kg MLP, day −7",1.27 ± 0.07
same,Serum hAAT normalized to Day 1 and control,"single IV 4 mg/kg + 4 mg/kg MLP delivery polymer, Day 1",1.00
same,Serum hAAT normalized to Day 1 and control,"single IV 4 mg/kg + 4 mg/kg MLP delivery polymer, Day 3",0.27 ± 0.03
same,Serum hAAT normalized to Day 1 and control,"single IV 4 mg/kg + 4 mg/kg MLP delivery polymer, Day 8",0.13 ± 0.02
same,Serum hAAT normalized to Day 1 and control,"single IV 4 mg/kg + 4 mg/kg MLP delivery polymer, Day 15",0.23 ± 0.07
same,Serum hAAT normalized to Day 1 and control,"single IV 4 mg/kg + 4 mg/kg MLP delivery polymer, Day 22",0.58 ± 0.09
same,Serum hAAT normalized to Day 1 and control,"single IV 4 mg/kg + 4 mg/kg MLP delivery polymer, Day 29",0.60 ± 0.08
same,Serum hAAT normalized to Day 1 and control,"single IV 4 mg/kg + 4 mg/kg MLP delivery polymer, Day 35",0.92 ± 0.22
same,Serum hAAT normalized to Day 1 and control,"single IV 4 mg/kg + 4 mg/kg MLP delivery polymer, Day −3",0.70 ± 0.17
